From patent US11203577B2, “Sulfonyl-structure-containing triazinone derivatives, their preparation methods and their uses in insect killing and/or bacterium killing” (Nankai University, priority 2017, dated 2021) come the findings set out here.

Molecules are shown by their SMILES. Where two headings read alike, the source gives them in different places.

One data set has as its system Cucumber fusarium wilt. Nature of the data set: In vitro fungicidal activity, PDA colony diameter. The settings on record: 96 h, 50 mg/kg, inhibition of colony diameter, read-out: Fungicidal activity (%) Cucumber fusarium wilt. Type of data set: cell-based.
The test system of data set [1] is Cercospora brown spot of peanut. Nature of the data set: In vitro fungicidal activity, PDA colony diameter. Type of data set: cell-based. The following applies: 96 h, 50 mg/kg, inhibition of colony diameter, read-out: Fungicidal activity (%) Cercospora brown spot of peanut.
In a further data set the test system is Tomato early blight. Description: In vitro fungicidal activity, PDA colony diameter. Type of data set: cell-based, Alternaria solani. The settings on record: 50 mg/kg, inhibition of colony diameter; read-out: Fungicidal activity (%) Tomato early blight.
The test system of the next data set is Wheat head blight. Nature of the data set: whole plant or invertebrate. Type of data set: cell-based. The settings on record: Triticum aestivum, read-out: Fungicidal activity (%) Wheat head blight.
For a further data set, the system named is Rice bakanae disease. Description: In vitro fungicidal activity, PDA colony diameter. The settings on record: 50 mg/kg, inhibition of colony diameter; read-out: Fungicidal activity (%) Rice bakanae disease. The data set is classed as cell-based.
Another data set relates to Sclerotinia rot of colza. Description: In vitro fungicidal activity, PDA colony diameter. The data set is classed as cell-based. The following applies: 96 h, 50 mg/kg, inhibition of colony diameter, read-out: Fungicidal activity (%) Sclerotinia rot of colza.
The next data set deals with Apple ring rot. Nature of the data set: In vitro fungicidal activity, PDA colony diameter. Type of data set: cell-based. The following applies: inhibition of colony diameter. An outline of the steps: (§1)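 Mycelial plugs cut from the edge of 7-day PDA colonies placed on PDA containing 50 mg/kg compound or on compound-free PDA, grown 4 days. Colony diameters measured; percent inhibition calculated against untreated control.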

Data set [2] relates to Capsicum phytophthora blight. Nature of the data set: In vitro fungicidal activity, PDA colony diameter. The data set is classed as cell-based. The following applies: 96 h. The essentials: as §1
A further data set relates to Wheat sheath blight. Nature of the data set: In vitro fungicidal activity, PDA colony diameter. The data set is classed as cell-based. The following applies: 50 mg/kg, inhibition of colony diameter; read-out: Fungicidal activity (%) Wheat sheath blight.
Data set [3] deals with Corn southern leaf blight. Nature of the data set: In vitro fungicidal activity, PDA colony diameter. Type of data set: cell-based. The following applies: 50 mg/kg, inhibition of colony diameter; read-out: Fungicidal activity (%) Corn southern leaf blight.
The next data set concerns Watermelon anthracnose. Description: In vitro fungicidal activity, PDA colony diameter. The data set is classed as cell-based. The following applies: read-out: Fungicidal activity (%) Watermelon anthracnose.
The test system of another data set is Potato late blight. Nature of the data set: microbe, parasite or virus in culture. The data set is classed as cell-based. The settings on record: Phytophthora infestans, 96 h, read-out: Fungicidal activity (%) Potato late blight.
For another data set, the system named is Rice sheath blight. Description: In vitro fungicidal activity, PDA colony diameter. Type of data set: cell-based. The following applies: 50 mg/kg, inhibition of colony diameter; read-out: Fungicidal activity (%) Rice sheath blight.
The next data set has as its system Armyworms. Description: Test of insecticidal activity against armyworms (leaf immersion). The settings on record: 600 mg/kg, 3-4 days.
A further data set concerns Maize borers. Description: Test of insecticidal activity against maize borers (leaf immersion). The settings on record: read-out: Mortalities (%) Maize borers.
Data set [4] concerns mosquito larvae (Culer pipiens pallens). Description: Test of insecticidal activity against mosquito larvae (checked after 24 h). The settings on record: 24 h, read-out: Mortalities (%) against mosquito larvae.
Method: Method of testing against mosquito larvae: the tested mosquito larvae are Culer pipiens pallens, a normal colony fed indoor. About 5 mg compound to be tested is weighed and loaded into a penicillin vial, 5 mL acetone (or an appropriate solvent) is added into the vial, and the vial is oscillated to dissolve the compound; thus, 1,000 ppm mother liquid is obtained. 1 mL mother liquid is weighed and added into a 100 mL beaker filled with 89 mL water, 10 mosquito larvae in the early stage of the 4th instar together with 10 mL feeding solution are poured into the beaker; thus, the concentration of the pesticide solution is 10 ppm (the pesticide solutions with other concentrations are attained by diluting the mother liquid by corresponding times). […] Water solution that contains 0.5 mL test solvent is used as a blank sample.
The test system of data set [5] is bean aphides (Aphis laburni Kaltenbach). Nature of the data set: Test of insecticidal activity against aphides (leaf immersion, checked after 96 h).
Method: The insecticidal activity against aphides is tested through the following steps: the tested aphides are bean aphides (Aphis laburni Kaltenbach), a normal colony fed with broad bean leaves in a laboratory. The pesticide is weighed, 1 mL DMF is added to dissolve the pesticide, then two drops of emulsifier, Tween-20 are added, and distilled water is added in an appropriate amount; the mixture is stirred to a homogeneous state to prepare pesticide solution at required concentration (see the following table for the specific concentration). […] In a control group, only emulsifier and solvent are added into distilled water, and the mixture is stirred to a homogeneous state.
A further data set relates to Cotton bollworms. Description: Test of insecticidal activity against cotton bollworms (pesticide mixed into feedstuff). The following applies: read-out: Mortalities (%) Cotton bollworms.
The mark [6] stands for this setting: 50 mg/kg, inhibition of colony diameter.
Where [7] appears, read: Aphis, 96 h, read-out: Mortalities (%) against aphides.

Method for Cotton bollworms: Method of testing against cotton bollworms: the pesticide is mixed into the feedstuff, i.e., 3 mL prepared solution is added into about 27 g freshly prepared feedstuff; thus, required concentration is obtained by diluting by 10 times.

Turning to `CC1=NNC(=O)N(N(S(=O)(=O)c2cccnc2)S(=O)(=O)c2cccnc2)C1` [Ib-9, N-(6-methyl-3-oxo-2,3-dihydro-1,2,4-triazin-4(5H)-yl)-N-(pyrid-3-yl-sulfonyl)pyridyl-3-sulfonamide], the inhibition of growth at 50 mg/kg in the data set on Cucumber fusarium wilt was determined as 7.7%; in [1], 19.2%; in the data set on Sclerotinia rot of colza it was 12.5%; in data set [2], 11.5%; with Potato late blight, 14.3%. Moreover, the inhibition at 50 mg/kg was 25% with Tomato early blight; 21.2% in the data set on Wheat head blight; 0% in the data set on Rice bakanae disease; 21.4% with Apple ring rot; 15.1% with Wheat sheath blight; 5.6% in data set [3]. In addition, the results for the inhibition at 50 mg/kg with Watermelon anthracnose (setting [6]) and in the data set with Rice sheath blight were 3.1% and 26.8%, respectively. In addition, in the data set with Armyworms, the “Mortalities (%) Armyworms” value is 15%. For the same molecule, the mortality at 600 mg/kg in the data set on Maize borers turned out to be 10%; in [5] (setting [7]), 95%; with Cotton bollworms it was 5%. Moreover, the mortality at 10 mg/kg in data set [4] turned out to be 10%; in [5] (setting [7]), 20%. Moreover, the mortality at 100 mg/kg in data set [5] (setting [7]) was 80%.
For the molecule `CC1=NNC(=O)N(/N=C/c2cccnc2)C1` [Pymetrozine, reference compound], the inhibition of growth at 50 mg/kg in the data set on Cucumber fusarium wilt amounted to 5%; in data set [1], 15.8%; in the data set with Sclerotinia rot of colza, 31.7%; in data set [2] it was 36.7%; in the data set on Potato late blight, 22.2%. Further, the inhibition at 50 mg/kg in the data set on Tomato early blight came out at 23.8%; in the data set with Wheat head blight, 13.3%; in the data set on Rice bakanae disease it was 33.3%; with Apple ring rot, 27.6%; in the data set on Wheat sheath blight, 63.6%; in [3], 16.7%. In addition, the inhibition at 50 mg/kg in the data set with Watermelon anthracnose (setting [6]) came out at 16.7%; in the data set with Rice sheath blight, 19%. In addition, the “Mortalities (%) Armyworms” value with Armyworms came to 50%. Further, the mortality at 600 mg/kg was found to be 35% with Maize borers, 100% in [5] (setting [7]) and 20% in the data set with Cotton bollworms. For the same molecule, the mortality at 5 mg/kg was found to be 40% in data set [4] and 30% in [5] (setting [7]). The mortality at 10 mg/kg in data set [4] was found to be 100%; in data set [5] (setting [7]), 90%. The “Mortalities (%) against aphides” value in [5] (2.5 mg/kg, 96 h) is “no insecticidal activity”. For the same molecule, the mortality at 2.5 mg/kg in data set [5] (setting [7]) was found to be 0%. For the same molecule, the mortality at 100 mg/kg in [5] (setting [7]) came to 100%.
Take `CC1=NNC(=O)N(NS(C)(=O)=O)C1` [Ia-1, N-(6-methyl-3-oxo-2,3-dihydro-1,2,4-triazin-4(5H)-yl)-methylsulfonylamide]: the inhibition of growth at 50 mg/kg with Cucumber fusarium wilt worked out at 0%; in [1], 26.3%; with Sclerotinia rot of colza, 31.7%; in data set [2], 46.9%; in the data set on Potato late blight, 33.3%. The inhibition at 50 mg/kg in the data set with Tomato early blight is 9.5%; with Wheat head blight it was 13.3%; with Rice bakanae disease, 27.8%; with Apple ring rot, 31%; in the data set on Wheat sheath blight, 63.6%; in data set [3] it was 20.8%. In addition, the inhibition at 50 mg/kg was 20.8% with Watermelon anthracnose (setting [6]) and 11.1% in the data set on Rice sheath blight. Moreover, in the data set with Armyworms, the “Mortalities (%) Armyworms” value is on record as 5%. Also, the results for the mortality at 600 mg/kg (in the data set on Maize borers; in data set [5] (setting [7]); in the data set on Cotton bollworms) were 0%, 100% and 40%, respectively. Besides, the values for the mortality at 10 mg/kg in data set [4] and in [5] (setting [7]) were 55% and 100%, respectively. Further, in data set [5] (setting [7]), the mortality at 5 mg/kg stood at 25%. In addition, the mortality at 100 mg/kg in [5] (setting [7]) worked out at 100%.
Turning to `CC1=NNC(=O)N(NS(=O)(=O)c2ccc(C#N)cc2)C1` [Ia-25, 4-cyano-N-(6-methyl-3-oxo-2,3-dihydro-1,2,4-triazin-4(5H)-yl)-benzenesulfonamide], the inhibition of growth at 50 mg/kg in the data set with Cucumber fusarium wilt was determined as 8.8%; in data set [1], 12%; in the data set on Sclerotinia rot of colza it was 26.3%; in data set [2] it was 22.2%; in the data set on Potato late blight, 18.7%. The inhibition at 50 mg/kg came out at 16.4% in the data set with Tomato early blight; 5.4% with Wheat head blight; 17.2% with Rice bakanae disease; 4.1% in the data set on Apple ring rot; 14.3% in the data set with Wheat sheath blight; 0% in data set [3]. Also, the inhibition at 50 mg/kg in the data set on Watermelon anthracnose (setting [6]) was 24.6%; with Rice sheath blight it was 13.9%. In addition, the “Mortalities (%) Armyworms” value in the data set with Armyworms is reported as 10%. In addition, the figures for the mortality at 600 mg/kg (in the data set with Maize borers; in data set [5] (setting [7]); in the data set on Cotton bollworms) were 25%, 100% and 35%, respectively. Further, the mortality at 2 mg/kg in data set [4] amounted to 40%. Besides, the mortality at 5 mg/kg in [4] came to 100%; in data set [5] (setting [7]) it was 20%. Besides, the mortality at 10 mg/kg came to 100% in data set [4] and 85% in [5] (setting [7]). In addition, the “insecticidal activity against aphides compared with pymetrozine” value in data set [5] (5 mg/kg) is recorded as “equivalent to the insecticidal activity of pymetrozine”. Moreover, the mortality at 100 mg/kg in [5] (setting [7]) amounted to 100%.
For the molecule `CC1=NNC(=O)N(NS(=O)(=O)c2cccs2)C1` [Ia-28, N-(6-methyl-3-oxo-2,3-dihydro-1,2,4-triazin-4(5H)-yl)-thienyl-2-sulfonamide], the inhibition of growth at 50 mg/kg is 0% with Cucumber fusarium wilt; 12% in data set [1]; 15.8% with Sclerotinia rot of colza; 25% in [2]; 0% in the data set with Potato late blight. Besides, the inhibition at 50 mg/kg in the data set with Tomato early blight is 23.9%; in the data set with Wheat head blight it was 8.1%; with Rice bakanae disease, 17.2%; in the data set with Apple ring rot, 0%; with Wheat sheath blight, 8.7%; in data set [3], 18.7%. For the same molecule, the inhibition at 50 mg/kg in the data set with Watermelon anthracnose (setting [6]) amounted to 0%; in the data set on Rice sheath blight, 17.4%. In addition, the “Mortalities (%) Armyworms” value with Armyworms is 5%. The mortality at 600 mg/kg was 5% in the data set with Maize borers, 100% in data set [5] (setting [7]) and 10% in the data set with Cotton bollworms. Besides, the mortality at 5 mg/kg in data set [4] is 20%. Also, the mortality at 10 mg/kg in data set [4] was found to be 100%; in data set [5] (setting [7]) it was 65%. Besides, in data set [5] (setting [7]), the mortality at 100 mg/kg was 100%.
Regarding `CC1=NNC(=O)N(NS(=O)(=O)c2ccc3c(c2)OCCO3)C1` [Ia-34, N-(6-methyl-3-oxo-2,3-dihydro-1,2,4-triazin-4(5H)-yl)-2,3-dihydrobenzo[b][1,4]dioxin-6-sulfonamide], the inhibition of growth at 50 mg/kg with Cucumber fusarium wilt worked out at 8.8%; in data set [1], 13%; with Sclerotinia rot of colza, 6.6%; in data set [2], 18.8%; with Potato late blight, 3.1%. Also, the inhibition at 50 mg/kg amounted to 16.1% with Tomato early blight; 10.9% in the data set on Wheat head blight; 12.5% with Rice bakanae disease; 39.2% in the data set on Apple ring rot; 36.8% with Wheat sheath blight; 10.3% in data set [3]. Further, the inhibition at 50 mg/kg in the data set with Watermelon anthracnose was determined as 18.8%; with Rice sheath blight, 4.7%. In addition, the “Mortalities (%) Armyworms” value in the data set on Armyworms came to 15%. Also, the mortality at 600 mg/kg with Maize borers came out at 10%; in data set [5] (setting [7]), 90%; with Cotton bollworms, 10%. For the same molecule, in data set [4], the mortality at 10 mg/kg is 15%. For the same molecule, the mortality at 100 mg/kg in data set [5] (setting [7]) stood at 35%.
